Counter-ions that a name gives are not always drawn. Like-named read-outs stand apart in the source and are kept apart here.
Tests used:
[1] = target: T1, recombinant human LTA4 hydrolase (rhLTA4H) (Homo sapiens, UniProt P09960); test: Recombinant human LTA4 hydrolase assay for LTA4 hydrolase inhibitor activity; assay type: biochemical; details: rhLTA4H, LTB4 by immunoassay; single determination or average of two or more; mark after value = form tested: ′ free base, ″ hydrochloride, ^ formate; read-out: IC50
T1 construct: made in house; host or cells: Spodoptera frugiperda (Sf-9) cells, baculovirus (pFastBac1)
T1 sequence (P09960 1-611): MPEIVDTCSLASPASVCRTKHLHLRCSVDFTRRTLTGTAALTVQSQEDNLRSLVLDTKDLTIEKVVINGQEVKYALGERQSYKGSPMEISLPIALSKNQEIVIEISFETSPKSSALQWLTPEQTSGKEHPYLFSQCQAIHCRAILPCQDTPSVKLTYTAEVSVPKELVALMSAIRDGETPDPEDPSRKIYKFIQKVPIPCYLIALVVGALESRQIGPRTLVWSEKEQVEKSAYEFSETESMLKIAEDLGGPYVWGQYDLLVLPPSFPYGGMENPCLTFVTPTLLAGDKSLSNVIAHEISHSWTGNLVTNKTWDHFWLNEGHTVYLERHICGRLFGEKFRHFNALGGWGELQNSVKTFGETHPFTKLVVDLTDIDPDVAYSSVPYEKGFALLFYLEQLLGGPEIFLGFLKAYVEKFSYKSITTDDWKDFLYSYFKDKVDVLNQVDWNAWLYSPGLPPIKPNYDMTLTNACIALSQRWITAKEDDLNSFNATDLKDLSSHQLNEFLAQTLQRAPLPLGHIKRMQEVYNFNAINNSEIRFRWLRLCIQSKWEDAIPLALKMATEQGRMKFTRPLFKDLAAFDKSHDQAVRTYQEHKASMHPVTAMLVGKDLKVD
Method in brief: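 Baculovirus/Sf-9-expressed human LTA4H (10 ng) was preincubated 10 min at rt with compound in assay buffer (10% DMSO in compound dilution), then reacted 30 min at rt with LTA4 free acid made from its methyl ester. LTB4 produced was measured by ELISA after dilution; IC50 from non-linear regression, single or averaged determinations.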

[2] = tested on: LTB4 production in murine blood (LTA4H); test: LTB4 production by calcium ionophore-stimulated murine blood for LTA4H inhibitor activity; assay type: cell-based, CD-1 mice; details: Mus musculus
Method in brief: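 Heparinized blood from CD-1 mice was preincubated with compound for 15 min at 37° C, then stimulated with calcium ionophore A23187 (final 7 μg/mL) for 30 min. Centrifugation stopped the reaction, and LTB4 in the supernatant was measured by enzyme immunoassay. Values are single determinations or means of two or more.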

[3] = murine blood diluted 1 in 15, A23187 stimulated, single determination or average, mark after value = form tested: ′ free base, ″ hydrochloride, ^ formate, read-out: IC50

| SMILES | IC50 [1] [nM] | IC50 [2, 3] [nM] | IC50 [2] [nM] |
| --- | --- | --- | --- |
| CC(=O)N[C@H]1C[C@H]2CC[C@@H](C1)N2CCc1coc2cc(Oc3nc4ccccc4s3)ccc12 [Example 129, meso-endo-N-(8-{2-[6-(Benzothiazol-2-yloxy)-benzofuran-3-yl]-ethyl}-8-aza-bicyclo[3.2.1]oct-3-yl)-acetamide] | 13 | 180 |  |
| CC(=O)N[C@H]1C[C@H]2CC[C@@H](C1)N2Cc1cc2ccc(Oc3nc4ccccc4s3)cc2s1 [Example 134, meso-endo-N-{8-[6-(Benzothiazol-2-yloxy)-benzo[b]thiophen-2-ylmethyl]-8-aza-bicyclo[3.2.1]oct-3-yl}-acetamide] | 43 | 740 |  |
| CCOC(=O)C1CCN(Cc2c[nH]c3cc(Oc4nc5cccnc5s4)ccc23)CC1 [Example 140, 1-[6-(Thiazolo[5,4-b]pyridin-2-yloxy)-1H-indol-3-ylmethyl]-piperidine-4-carboxylic acid ethyl ester] | 21 | 8510 |  |
| COC(=O)CC1CCN(Cc2c[nH]c3cc(Oc4nc5ccccc5s4)ccc23)CC1 [Example 141, {1-[6-(Benzothiazol-2-yloxy)-1H-indol-3-ylmethyl]-piperidin-4-yl}-acetic acid methyl ester] | 20 | 640 |  |
| CCOC(=O)[C@@H]1CCCN(Cc2c[nH]c3cc(Oc4nc5ccccc5s4)ccc23)C1 [Example 144, (3R)-1-[6-(Benzothiazol-2-yloxy)-1H-indol-3-ylmethyl]-piperidine-3-carboxylic acid ethyl ester] | 78 | 2440 |  |
| CC(C)(C)OC(=O)N1CC2CN(Cc3c[nH]c4cc(Oc5nc6ccccc6s5)ccc34)CC2C1 (centres unmarked) [Example 146, 5-[6-(Benzothiazol-2-yloxy)-1H-indol-3-ylmethyl]-hexahydro-pyrrolo[3,4-c]pyrrole-2-carboxylic acid tert-butyl ester] | 17 | 582 |  |
| NC(=O)N1CC2CN(Cc3coc4cc(Oc5nc6ncccc6s5)ccc34)CC2C1 (centres unmarked) [Example 161, 5-[6-(Thiazolo[4,5-b]pyridin-2-yloxy)-benzofuran-3-ylmethyl]-hexahydro-pyrrolo[3,4-c]pyrrole-2-carboxylic acid amide] | 9 | 69 |  |
| CC(=O)N1C[C@@H]2C[C@H]1CN2Cc1coc2cc(Oc3nc4ccccc4s3)ccc12 [Example 164, (1S,4S)-1-{5-[6-(Benzothiazol-2-yloxy)-benzofuran-3-ylmethyl]-2,5-diaza-bicyclo[2.2.1]hept-2-yl}-ethanone] | 26 | 230 |  |
| NC(=O)N[C@H]1C[C@H]2CC[C@@H](C1)N2Cc1cc2ccc(Oc3nc4ncccc4s3)cc2o1 [Example 172, meso-endo-{8-[6-(Thiazolo[4,5-b]pyridin-2-yloxy)-benzofuran-2-ylmethyl]-8-aza-bicyclo[3.2.1]oct-3-yl}-urea] | 9 | 230 |  |
| NC(=O)N[C@H]1C[C@H]2CC[C@@H](C1)N2Cc1coc2cc(Oc3nc4ncccc4s3)ccc12 [Example 175, meso-endo-{8-[6-(Thiazolo[4,5-b]pyridin-2-yloxy)-benzofuran-3-ylmethyl]-8-aza-bicyclo[3.2.1]oct-3-yl}-urea] | 2 | 176 |  |
| CN(Cc1ccco1)Cc1coc2cc(Oc3nc4ncccc4s3)ccc12 [Example 176, Furan-2-ylmethyl-methyl-[6-(thiazolo[4,5-b]pyridin-2-yloxy)-benzofuran-3-ylmethyl]-amine] | 60 | 200 |  |
| CN(Cc1cccnc1)Cc1coc2cc(Oc3nc4ncccc4s3)ccc12 [Example 178, Methyl-pyridin-3-ylmethyl-[6-(thiazolo[4,5-b]pyridin-2-yloxy)-benzofuran-3-ylmethyl]-amine] | 20 | 290 |  |
| CC(=O)N[C@H]1C[C@H]2CC[C@@H](C1)N2Cc1coc2cc(Oc3nc4ccccc4s3)ccc12 [Example 181, meso-endo-N-{8-[6-(Benzothiazol-2-yloxy)-benzofuran-3-ylmethyl]-8-aza-bicyclo[3.2.1]oct-3-yl}-acetamide] | 3 | 33 |  |
| c1cnc2nc(Oc3ccc4cc(CN5CCCCC5)oc4c3)sc2c1 [Example 192, 2-(2-Piperidin-1-ylmethyl-benzofuran-6-yloxy)-thiazolo[4,5-b]pyridine formate] | 43 |  | 120 |
| CC(=O)N1C[C@H]2CC[C@@H](C1)N2Cc1cc2ccc(Oc3nc4cnccc4s3)cc2o1 [Example 202, meso-1-{8-[6-(Thiazolo[4,5-c]pyridin-2-yloxy)-benzofuran-2-ylmethyl]-3,8-diaza-bicyclo[3.2.1]oct-3-yl}ethanone] | 1520 | 2700 |  |
| CC(=O)N1C[C@H]2CC[C@@H](C1)N2Cc1cc2cc(Oc3nc4cnccc4s3)ccc2o1 [Example 206, meso-1-{8-[5-(Thiazolo[4,5-c]pyridin-2-yloxy)-benzofuran-2-ylmethyl]-3,8-diaza-bicyclo[3.2.1]oct-3-yl}-ethanone] | 147 | 340 |  |

Further compounds by falling IC50 [1], results first:

| IC50 [1] [nM] | IC50 [2, 3] [nM] | SMILES | IC50 [2] [nM] |
| --- | --- | --- | --- |
| 95 | 840 | c1ccc2sc(Oc3ccc4c(CN5CCOCC5)coc4c3)nc2c1 [Example 165, 2-(3-Morpholin-4-ylmethyl-benzofuran-6-yloxy)-benzothiazole] |  |
| 80 | 151 | CC(=O)N1CC2CN(Cc3cc4ccc(Oc5nc6ncccc6s5)cc4o3)CC2C1 (centres unmarked) [Example 195, 1-{5-[6-(Thiazolo[4,5-b]pyridin-2-yloxy)-benzofuran-2-ylmethyl]-hexahydro-pyrrolo[3,4-c]pyrrol-2-yl}-ethanone] |  |
| 59 | 280 | CC(=O)N1CCN(Cc2cc3ccc(Oc4nc5ncccc5s4)cc3o2)CC1 [Example 171, 1-{4-[6-(Thiazolo[4,5-b]pyridin-2-yloxy)-benzofuran-2-ylmethyl]-piperazin-1-yl}-ethanone] |  |
| 52 | 260 | NC(=O)N1C[C@H]2C[C@@H]1CN2Cc1cc2ccc(Oc3nc4ncccc4s3)cc2o1 [Example 193, (1R,4R)-5-[6-(Thiazolo[4,5-b]pyridin-2-yloxy)-benzofuran-2-ylmethyl]-2,5-diaza-bicyclo[2.2.1]heptane-2-carboxylic acid amide] |  |
| 39 | 260 | NC(=O)N1CC2CN(Cc3cc4ccc(Oc5nc6ncccc6s5)cc4o3)CC2C1 (centres unmarked) [Example 194, 5-[6-(Thiazolo[4,5-b]pyridin-2-yloxy)-benzofuran-2-ylmethyl]-hexahydro-pyrrolo[3,4-c]pyrrole-2-carboxylic acid amide] |  |
| 21 | 38 | CC(=O)NC1CCN(Cc2coc3cc(Oc4nc5ccccc5s4)ccc23)CC1 [Example 180, N-{1-[6-(Benzothiazol-2-yloxy)-benzofuran-3-ylmethyl]-piperidin-4-yl}-acetamide] |  |
| 15 | 85 | CN(Cc1ccccc1)Cc1cc2cc(Oc3nc4ncccc4s3)ccc2o1 [Example 114, Benzyl-methyl-[5-(thiazolo[4,5-b]pyridin-2-yloxy)-benzofuran-2-ylmethyl]-amine] |  |
| 12 | 467 | CCOC(=O)C1CCN(Cc2c[nH]c3cc(Oc4nc5ccccc5s4)ccc23)CC1 [Example 139, 1-[6-(Benzothiazol-2-yloxy)-1H-indol-3-ylmethyl]-piperidine-4-carboxylic acid ethyl ester] |  |
| 12 | 568 | CC(C)(C)OC(=O)N1C[C@@H]2C[C@H]1CN2Cc1c[nH]c2cc(Oc3nc4ccccc4s3)ccc12 [Example 147, (1S,4S)-5-[6-(Benzothiazol-2-yloxy)-1H-indol-3-ylmethyl]-2,5-diaza-bicyclo[2.2.1]heptane-2-carboxylic acid tert-butyl ester] |  |
| 11 | 75 | O=C1CCCN1C1CCN(Cc2coc3cc(Oc4nc5ccccc5s4)ccc23)CC1 [Example 179, 1-{1-[6-(Benzothiazol-2-yloxy)-benzofuran-3-ylmethyl]-piperidin-4-yl}-pyrrolidin-2-one] |  |
| 10 | 833 | FC(F)(F)C1CCN(Cc2cc3ccc(Oc4nc5ncccc5s4)cc3o2)CC1 [Example 191, 2-[2-(4-Trifluoromethyl-piperidin-1-ylmethyl)-benzofuran-6-yloxy]-thiazolo[4,5-b]pyridine formate] |  |
| 9.7 | 171 | CC(C)(C)OC(=O)NC1CCN(Cc2c[nH]c3cc(Oc4nc5ccccc5s4)ccc23)CC1 [Example 145, {1-[6-(Benzothiazol-2-yloxy)-1H-indol-3-ylmethyl]-piperidin-4-yl}-carbamic acid tert-butyl ester] |  |
